Measured values reported in BigSolDB 2.1.

NCC(CC(=O)O)c1ccc(Cl)cc1 (stereo not given)
solubility (mole fraction)
Details	in ethanol	in isopropanol	in methanol	in n-propanol	in propylene glycol
293.2 K	3.25e-05	5.77e-05	0.000123	5.6e-05	0.000216
298.2 K	4.17e-05	6.36e-05	0.000131	6.26e-05	0.000271
303.2 K	4.87e-05	7.64e-05	0.00014	6.34e-05	0.000345
308.2 K	5.39e-05	8.09e-05	0.000147	7.82e-05	0.000424
313.2 K	6.09e-05	8.85e-05	0.000173	8.22e-05	0.000485
